Where two headings read alike, the source gives them in different places.
Experiment: Pharmacokinetics study of KDG-0388 in male CD1 mice (Example 2)
Type: in vivo
Conditions: for F: bioavailability vs 1 mg/kg IV; for MRT inf: read-out: MRTInf_obs
Description: A standard PK study of KDG-0388 was performed in male CD1 mice dosed with a single oral or intraperitoneal dose of KDG-0388. The parameters of the PK study are described in Table 10. Dosing solutions were freshly made prior to use, and were in the form of a suspension. […] For IV and IP, after collection, plasma samples from the same time point were pooled, and the pooled samples were analyzed by LC/MS/MS.
The desired serial concentrations of working solutions were achieved by diluting stock solution of analyte with 50% acetonitrile in water solution. 5 μL of working solutions (2, 4, 10, 20, 100, 400, 2000, 4000 ng/mL) were added to 10 μL of blank CD1 mouse plasma to achieve calibration standards of 1-2000 ng/mL (1, 2, 5, 10, 50, 200, 1000, 2000 ng/mL) in a total volume of 15 μL. Five quality control (QC) samples at 2 ng/mL, 5 ng/mL, 50 ng/mL, 800 ng/mL and 1600 ng/mL for plasma were prepared independently of those used for the calibration curves. These QC samples were prepared on the day of analysis in the same way as calibration standards.
15 μL standards, 15 μL QC samples and 15 μL unknown samples (10 μL plasma with 5 μL blank solution) were added to 200 μL of acetonitrile containing IS mixture for precipitating protein. Then, the samples were vortexed for 30 seconds. After centrifugation at 4 degrees Celsius, 4000 rpm for 15 minutes, the supernatant was diluted three times with water. 25 μL of diluted supernatant was injected into the LC/MS/MS system for quantitative analysis.
BLOQ=Below quantifiable limit of 1 ng/mL. PK parameters were estimated by non-compartmental model using WinNonlin 6.1. The PO bioavailability (F %) was calculated as following:
AUClast-PO/AUCINF-PO>80%: F=(AUCINF-PO*DoseIV)/(mean AUCINF-IV*DosePO) AUClast-PO/AUCINF-PO≤80% or AUCINF was not available: F=(AUClast-PO*DoseIV)/(mean AUClast-IV*DosePO).
The IP bioavailability (F %) was calculated as following:
AUClast-IP/AUCINF-IP>80%: F=(AUCINF-IP*DoseIV)/(mean AUCINF-IV*DoseIP) AUClast-IP/AUCINF-IP≤80% or AUCINF was not available: F=(AUClast-IP*DoseIV)/(mean AUClast-IV*DoseIP).

[1] = male, mouse, plasma, CD1 mice, 1 mg/kg IV
[2] = male, mouse, CD1 mice, plasma, 1 mg/kg IV, read-out: Concentration IV_Mean
[3] = mouse, plasma, male CD1 mice, 200 mg/kg IP
[4] = mouse, plasma, male CD1 mice, 200 mg/kg PO
[5] = mouse, male CD1 mice, plasma, 200 mg/kg IP, read-out: Concentration IP_Mean
[6] = mouse, male CD1 mice, plasma, 200 mg/kg PO, read-out: Concentration PO_Mean

Work on `Cc1n[nH]c2c1C(c1cc(C#C[C@H]3C[C@@H](NC(=O)OC(C)(C)C)C3)cc(CO)c1)(C(C)C)C(C#N)=C(N)O2` (stereo partly drawn) [KDG-0388, tert-butyl N-[(1s,3s)-3-[2-(3-[6-amino-5-cyano-4-isopropyl-3-methyl-1H-pyrano[2,3-c]pyrazol-4-yl]-5-(hydroxymethyl)phenyl)ethynyl]cyclobutyl]carbamate] yielded an AUC_%Extrap_obs (CD1 mice, 1 mg/kg IV) of 3.44%, an AUClast/D (CD1 mice, 1 mg/kg IV) of 76.6 kg·ng·h/mL/mg and a Cl_obs (CD1 mice, 1 mg/kg IV) of 210 mL/min/kg. The Vss_obs (CD1 mice, 1 mg/kg IV) was 8.80 L/kg, the “Concentration IV_Mean” value (CD1 mice, plasma, 1 mg/kg IV, 8 h) was “BLOQ” and the AUC_%Extrap_obs (male CD1 mice, 200 mg/kg IP) was 6.08%. The AUClast/D (male CD1 mice, 200 mg/kg IP) was 136 kg·ng·h/mL/mg, the F (male CD1 mice, 200 mg/kg IP) was 183% and the AUC_%Extrap_obs (male CD1 mice, 200 mg/kg PO) was 0.218%. The AUClast/D (male CD1 mice, 200 mg/kg PO) was 16.9 kg·ng·h/mL/mg, the F (male CD1 mice, 200 mg/kg PO) was 21.4% and the “Concentration PO_Mean” value (male CD1 mice, plasma, 200 mg/kg PO, 24 h) was “BLOQ”. The clinical symptoms (male CD1 mice, single dose 200 mg/kg PO or 200 mg/kg IP, entire experiment) was “No abnormal clinical symptoms were observed”, the AUC(0-inf) [1] was 79.3 ng·h/mL and the AUC(0-t) [1] was 76.6 ng·h/mL. It also gave a C0 [1] of 325 ng/mL, a half-life [1] of 1.11 h and an MRT inf [1] of 0.698 h. It also gave a concentration at 0.083 h (male, mouse, CD1 mice, plasma, 1 mg/kg IV, 0.083 h, read-out: Concentration IV_Mean) of 186 ng/mL, a concentration at 0.25 h [2] of 60.6 ng/mL and a concentration at 0.5 h [2] of 24.9 ng/mL. For the same compound, the concentration at 1 h [2] was 11.8 ng/mL, the concentration at 2 h [2] was 4.86 ng/mL and the concentration at 4 h [2] was 1.71 ng/mL. For the same compound, the AUC(0-inf) [3] was 29000 ng·h/mL, the AUC(0-t) [3] was 27200 ng·h/mL and the Cmax [3] was 7520 ng/mL. For the same compound, the Tmax [3] was 0.25 h, the half-life [3] was 7.88 h and the MRT inf [3] was 6.33 h. It also gave an AUC(0-inf) [4] of 3400 ng·h/mL, an AUC(0-t) [4] of 3390 ng·h/mL and a Cmax [4] of 719 ng/mL. It also gave a Tmax [4] of 2 h, a half-life [4] of 1.69 h and an MRT inf [4] of 3.53 h. The concentration at 0.25 h [5] was 7520 ng/mL, the concentration at 0.5 h [5] was 6170 ng/mL and the concentration at 1 h [5] was 5460 ng/mL. The concentration at 2 h [5] was 3910 ng/mL, the concentration at 4 h [5] was 2230 ng/mL and the concentration at 8 h (mouse, male CD1 mice, plasma, 200 mg/kg IP, 8 h, read-out: Concentration IP_Mean) was 633 ng/mL. The concentration at 16 h [5] was 247 ng/mL, the concentration at 24 h (mouse, male CD1 mice, plasma, 200 mg/kg IP, 24 h, read-out: Concentration IP_Mean) was 155 ng/mL and the concentration at 0.25 h [6] was 215 ng/mL. The concentration at 0.5 h [6] was 347 ng/mL, the concentration at 1 h [6] was 475 ng/mL and the concentration at 2 h [6] was 719 ng/mL. The concentration at 4 h [6] was 417 ng/mL, the concentration at 8 h (mouse, male CD1 mice, plasma, 200 mg/kg PO, 8 h, read-out: Concentration PO_Mean) was 84.3 ng/mL and the concentration at 16 h [6] was 3.04 ng/mL.

Reference: patent US20230382920A1, “SHMT Inhibitors” (The Trustees of Princeton University, priority 2020, published 2023)
